Measured values published in US12479831B2, “Substituted N(-methyl-D3)pyridazine-3-carboxamide or M-(methyl-D3)-nicotinamide compounds as IL-12, IL-23 and/or IFNα modulators” (BRISTOL-MYERS SQUIBB COMPANY, priority 2020, dated 2025).
pIC50: −log10 of the molar value.

System: IFNα-Induced STAT Phosphorylation in Human Whole Blood
Assay: IFNα-Induced STAT Phosphorylation in Human Whole Blood
Type: cell-based
Settings: 1 h incubation with compound, 1000 U/mL recombinant human IFNα A/D for 15 min, pSTAT5 (pY694) median fluorescence intensity in CD3 positive population, read-out: hWB IC50

SMILES	pIC50
[2H]C([2H])([2H])NC(=O)c1nnc(NC(=O)C2CC2)cc1Nc1cccc(-c2nccc(C#N)n2)c1OC [Example 3, 4-((3-(4-cyanopyrimidin-2-yl)-2-methoxyphenyl)amino)-6-(cyclopropanecarboxamido)-N-(methyl-d3)pyridazine-3-carboxamide]	6.84
[2H]C([2H])([2H])NC(=O)c1nnc(NC(=O)C2CC2)cc1Nc1cccc(-c2cnc(C(=O)N3CCOCC3)cn2)c1OC [Example 38, 6-(cyclopropanecarboxamido)-4-((2-methoxy-3-(5-(morpholine-4-carbonyl)pyrazin-2-yl)phenyl)amino)-N-(methyl-d3)pyridazine-3-carboxamide]	7.36
[2H]C([2H])([2H])NC(=O)c1nnc(NC(=O)C2CC2)cc1Nc1cccc(-c2ncc(N3CCOCC3=O)cn2)c1OC [Example 117]	6.95
[2H]C([2H])([2H])NC(=O)c1cnc(Nc2ccccn2)cc1Nc1cccc(-c2ncc(F)cn2)c1OC [Example 70, 4-((3-(5-fluoropyrimidin-2-yl)-2-methoxyphenyl)amino)-N-(methyl-d3)-6-(pyridin-2-ylamino)nicotinamide]	7.05
[2H]C([2H])([2H])NC(=O)c1nnc(NC(=O)C2CC2)cc1Nc1cccc(-c2cnc(C(=O)N3CC[C@@H](F)C3)cn2)c1OC [Example 37, (R)-6-(cyclopropanecarboxamido)-4-((3-(5-(3-fluoropyrrolidine-1-carbonyl)pyrazin-2-yl)-2-methoxyphenyl)amino)-N-(methyl-d3)pyridazine-3-carboxamide]	7.01
[2H]C([2H])([2H])NC(=O)c1nnc(NC(=O)C2CC2)cc1Nc1cccc(-c2ncc(C3(O)CCC3)cn2)c1OC [Example 27, 6-(cyclopropanecarboxamido)-4-((3-(5-(1-hydroxycyclobutyl)pyrimidin-2-yl)-2-methoxyphenyl)amino)-N-(methyl-d3)pyridazine-3-carboxamide]	7.20
[2H]C([2H])([2H])NC(=O)c1nnc(NC(=O)C2CC2)cc1Nc1cc(F)cc(-c2ccc(C(=O)N(C)C)cn2)c1OC [Example 44, 6-(cyclopropanecarboxamido)-4-((3-(5-(dimethylcarbamoyl)pyridin-2-yl)-5-fluoro-2-methoxyphenyl)amino)-N-(methyl-d3)pyridazine-3-carboxamide]	6.96
[2H]C([2H])([2H])NC(=O)c1nnc(NC(=O)C2CCC2)cc1Nc1cccc(-c2ncccn2)c1OC [Example 4, 6-(cyclobutanecarboxamido)-4-((2-methoxy-3-(pyrimidin-2-yl)phenyl)amino)-N-(methyl-d3)pyridazine-3-carboxamide]	6.46
[2H]C([2H])([2H])NC(=O)c1cnc(Nc2ccn(C3CC3)n2)cc1Nc1cccc(-c2ncccn2)c1OC [Example 69, 6-((1-cyclopropyl-1H-pyrazol-3-yl)amino)-4-((2-methoxy-3-(pyrimidin-2-yl)phenyl)amino)-N-(methyl-d3)nicotinamide]	7.25
[2H]C([2H])([2H])NC(=O)c1cnc(NC(=O)C2CC2)cc1Nc1cccc(-c2ncc(F)cc2C#N)c1OC [Example 115]	6.17
[2H]C([2H])([2H])NC(=O)c1nnc(Nc2ccc(C(F)(F)F)nn2)cc1Nc1cccc(-c2ncccn2)c1OC [Example 98, 4-((2-methoxy-3-(pyrimidin-2-yl)phenyl)amino)-N-(methyl-d3)-6-((6-(trifluoromethyl)pyridazin-3-yl)amino)pyridazine-3-carboxamide]	6.95
[2H]C([2H])([2H])NC(=O)c1nnc(Nc2cc(C(C)(C)O)ccn2)cc1Nc1cccc(-c2ncc(F)cn2)c1OC [Example 102, 4-((3-(5-fluoropyrimidin-2-yl)-2-methoxyphenyl)amino)-6-((4-(2-hydroxypropan-2-yl)pyridin-2-yl)amino)-N-(methyl-d3)pyridazine-3-carboxamide]	6.67
[2H]C([2H])([2H])NC(=O)c1nnc(NC(=O)C2CC2)cc1Nc1cccc(-c2ncc(S(C)(=O)=O)cn2)c1OC [Example 111]	6.67
[2H]C([2H])([2H])NC(=O)c1nnc(NC(=O)C2CC2)cc1Nc1cccc(-c2cnc(C(C)(O)CF)cn2)c1OC (centres unmarked) [Example 35, 6-(cyclopropanecarboxamido)-4-((3-(5-(1-fluoro-2-hydroxypropan-2-yl)pyrazin-2-yl)-2-methoxyphenyl)amino)-N-(methyl-d3)pyridazine-3-carboxamide]	6.97
[2H]C([2H])([2H])NC(=O)c1nnc(NC(=O)C2CC2)cc1Nc1cccc(-c2ncc(F)cc2C#N)c1OC [Example 114]	6.62
[2H]C([2H])([2H])NC(=O)c1nnc(Nc2ccc(C(C)(C)O)cn2)cc1Nc1cccc(-c2ncc(F)cn2)c1OC [Example 103, 4-((3-(5-fluoropyrimidin-2-yl)-2-methoxyphenyl)amino)-6-((5-(2-hydroxypropan-2-yl)pyridin-2-yl)amino)-N-(methyl-d3)pyridazine-3-carboxamide]	7.10
[2H]C([2H])([2H])NC(=O)c1nnc(NC(=O)C2CC2)cc1Nc1cc(F)cc(-c2ncccn2)c1OC [Example 7, 6-(cyclopropanecarboxamido)-4-((5-fluoro-2-methoxy-3-(pyrimidin-2-yl)phenyl)amino)-N-(methyl-d3)pyridazine-3-carboxamide]	6.71
[2H]C([2H])([2H])NC(=O)c1nnc(Nc2ccc(OC)nn2)cc1Nc1cccc(-c2ncc(F)cn2)c1OC [Example 97, 4-((3-(5-fluoropyrimidin-2-yl)-2-methoxyphenyl)amino)-6-((6-methoxypyridazin-3-yl)amino)-N-(methyl-d3)pyridazine-3-carboxamide]	7.10
[2H]C([2H])([2H])NC(=O)c1nnc(NC(=O)C2CC2)cc1Nc1cccc(-c2nccc(C(=O)N(C)C)n2)c1OC [Example 49, 6-(cyclopropanecarboxamido)-4-((3-(4-(dimethylcarbamoyl)pyrimidin-2-yl)-2-methoxyphenyl)amino)-N-(methyl-d3)pyridazine-3-carboxamide]	6.49
[2H]C([2H])([2H])NC(=O)c1nnc(NC(=O)C2CC2)cc1Nc1cc(F)cc(-c2ccc(C(=O)N(C)C)nn2)c1OC [Example 42, 6-(cyclopropanecarboxamido)-4-((3-(6-(dimethylcarbamoyl)pyridazin-3-yl)-5-fluoro-2-methoxyphenyl)amino)-N-(methyl-d3)pyridazine-3-carboxamide]	7.25
[2H]C([2H])([2H])NC(=O)c1nnc(Nc2cn(CC)nn2)cc1Nc1cccc(-c2ncccn2)c1OC [Example 88, 6-((1-ethyl-1H-1,2,3-triazol-4-yl)amino)-4-((2-methoxy-3-(pyrimidin-2-yl)phenyl)amino)-N-(methyl-d3)pyridazine-3-carboxamide]	6.84
[2H]C([2H])([2H])NC(=O)c1nnc(NC(=O)C2CC2)cc1Nc1cccc(-c2cn(C)c(=O)cn2)c1OC [Example 10, 6-(cyclopropanecarboxamido)-4-((2-methoxy-3-(4-methyl-5-oxo-4,5-dihydropyrazin-2-yl)phenyl)amino)-N-(methyl-d3)pyridazine-3-carboxamide]	6.71
[2H]C([2H])([2H])NC(=O)c1cnc(Nc2ccn(C3CC3)n2)cc1Nc1cccc(-c2ncc(F)cn2)c1OC [Example 68, 6-((1-cyclopropyl-1H-pyrazol-3-yl)amino)-4-((3-(5-fluoropyrimidin-2-yl)-2-methoxyphenyl)amino)-N-(methyl-d3)nicotinamide]	6.87
